Consider three substances from patent US20260151457A1, “Peptides and Fragments for Treating Diabetes and Associated Metabolic Diseases” (Betavive Ltd., priority 2024, published 2026).

Experiment [1] has as its system β-MIN6 cells. The experiment in a line: Insulin secretion of β-MIN6 cells following glucose induction. It is filed as cell-based, mouse. Particulars: IGF-2 5 nM, 20 nM, 80 nM, 1 week treatment. From the text: β-MIN6 cells serve as an in vitro model of mouse pancreatic islets. β-MIN6 cells were used as an in vitro model to measure the effects of treatment with IGF-2.

Experiment [2] deals with STZ-treated mouse islets. Kind of experiment: Insulin secretion from STZ-treated mouse islets. The class given is cell-based. Conditions: islets treated with 2.5 mM STZ; IGF-2 50 nM and 500 nM, GLP-1 100 nM and 1000 nM; 48 hours. Here is the method: Mouse islet cells were treated with 2.5 mM STZ and subsequently treated with either IGF-2 (FA) at 50 nM and 500 nM, or with GLP-1 at 100 nM and 1000 nM.

The test system of experiment [3] is STZ-treated mouse islets. The experiment in a line: MTT viability of STZ-treated mouse islets. The class given is cell-based. Conditions: increasing concentrations. From the text:
Yellow dye MTT is converted to a purple dye by mitochondrial reductase in viable cells. Therefore, the amount of purple dye present determined by measuring optical density of cells at 570 nm serves as a measurement of cell viability.

For experiment [4], the system named is db/db mice. The experiment in a line: Peptide efficacy on type 2 diabetes (db/db mice): pancreas H&E and IHC. The class given is in vivo. As to the method:
Male db/db mice (BKS.Cg-Dock7m+/+Leprdb/J) were administered Peptide 16 and Peptide 20 via intraperitoneal injection once daily for 35 consecutive days. Peptide 16 was administered at a dose of 5.5 mg/kg, while Peptide 20 was administered at 3.9 mg/kg. The control group received saline. Throughout the treatment period, mice were monitored for body weight and behavioral changes. At the end of the study, mice were sacrificed, and blood samples were collected for C-peptide level measurement. The pancreas was harvested for pathological analysis, including hematoxylin and eosin (H&E) staining and immunohistochemistry (IHC). Results appear in FIG. 37. All pancreatic tissue sections were stained with hematoxylin and eosin (H&E). […] Results appear in FIG. 38.

The test system of experiment [5] is Human pancreatic islets. Kind of experiment: Peptides efficacy on human pancreatic islets (IHC, digital quantitative pathological analysis). The class given is cell-based. As to the method:
Human pancreatic islets, obtained from Prodo Labs, were cultured in Prodo Labs PIM(S) media and maintained at 37° C. with 5% CO2 to ensure optimal viability. The islets were treated with IGF-2 (500 nM) and Peptide-20 (1000 nM) for five days under continuous exposure. After treatment, islets were collected and fixed in 4% paraformaldehyde (PFA) to preserve cellular and structural integrity. The samples were then processed for formalin-fixed paraffin-embedded (FFPE) histology. Sectioned islets were stained using immunohistochemistry (IHC) with specific markers to assess islet integrity, β-cell function, and proliferation. Microscopic Digital Quantitative Pathological Analysis provided critical insights into the effects of IGF-2 and Peptide-20 on islet structure and function. […] These findings establish Peptide-20 as a strong candidate for novel diabetes therapies aimed at restoring islet function and reversing β-cell loss. […] Their ability to enhance β-cell survival and proliferation positions them as strong candidates for the development of novel regenerative therapies, paving the way for innovative drug development aimed at reversing diabetes and restoring endogenous insulin production.

Experiment [6] has as its system mice. Kind of experiment: Blood glucose concentration kinetics of IGF-2 vs. insulin in a glucose tolerance test. It is filed as in vivo. Here is the method: IGF-2 therefore provides an effect that mimics insulin within the body, and that effect is referred to herein as an “insulinomimetic” effect. […] More specifically, when 1 unit of insulin per kg was administered, the recovery in glucose levels began after two hours. But when 800 μg/kg of IGF-2 was administered, the recovery in glucose levels began after six hours. […] In this example, administering IGF-2 can provide better results than administering insulin with respect to blood glucose levels, even when only a single dose was used. Without being bound by this theory, it is possible that the IGF-2 combines with a number of binding proteins in the blood and its active free form is then released slowly from the complex.

Where [7] appears, read: Peptide-20 1000 nM for five days.

Where no end group is shown, it is not given here.

As to “GLP-1 (HAEGTFTSDVSSYLEGQAAKEFIAWLVKGR; ends and bridges not checked; UniProt P01275 98-127, looked up) [a satiety hormone, comparator in vitro, reference compound]”, the “Insulin secretion following glucose induction” value in experiment [1] is recorded as “does not increase insulin secretion”. The Insulin secretion entry in experiment [2] is “did not significantly increase insulin secretion”. The “Mouse islet viability (MTT, optical density at 570 nm)” value in experiment [3] is given as “did not significantly increase mouse islet viability”.

Consider RSRGIVEECCFRICDLALLE [Peptide 20], for which, in experiment [4] (Peptide 20 3.9 mg/kg i.p. once daily for 35 days), the “Islets of Langerhans in the pancreas (IHC)” value is “regenerating the islets of Langerhans”. For the same substance, the “Islets of Langerhans in pancreatic tissue sections (H&E)” value in experiment [4] (i.p. once daily for 35 days, Peptide 16 5.5 mg/kg, Peptide 20 3.9 mg/kg) is “regenerating the islets of Langerhans”. Moreover, the “Pancreatic islet regeneration, integrity and function” value in experiment [5] (IGF-2 500 nM, Peptide-20 1000 nM, five days) is “enhances human pancreatic islet regeneration and function”. For the same substance, in experiment [5] (setting [7]), the Islet area result is listed as “significant increase”, the “Total insulin signal intensity” value is given as “significant increase” and the β-cell proliferation result is listed as “significant increase”.

As to insulin [reference compound], the “Glucose level after administration” value in experiment [6] (glucose tolerance test in mice) is listed as “decreased”. Further, in experiment [6] (insulin 1 unit per kg, IGF-2 800 μg/kg, single dose), the “Time after which the recovery in glucose levels began” value is reported as “two”.
